# Assay results: ChEMBL document CHEMBL1201862, “PubChem BioAssay data set” (2004)
#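 Cells were grown in 96-well plates and exposed to each compound for 48 hours at five concentrations; endpoints were interpolated linearly between bracketing concentrations, or set to the highest concentration if not reached. GI50 = concentration required for 50% inhibition of growth.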 Calls of active or inactive are those of the source. Cut-off read from the data, not from the text of the source: active = GI50 up to about 1.1 µM and inactive = higher.
# Tests used:
# Assay in all cases: DTP human tumour cell line panel, 48 h
# DLD-1 = tested on: DLD-1
# XF498 = tested on: XF498
# UACC-62 = tested on: UACC-62
# SK-MEL-28 = tested on: SK-MEL-28
# KM-20L2 = tested on: KM-20L2
# OVCAR-3 = tested on: OVCAR-3
# RPMI-8226 = tested on: RPMI-8226
# SK-MEL-5 = tested on: SK-MEL-5
# DMS-114 = tested on: DMS-114
# UACC-257 = tested on: UACC-257
# SF-295 = tested on: SF-295
# A498 = tested on: A498
# HCT-116 = tested on: HCT-116
# CAKI-1 = tested on: CAKI-1
# TK-10 = tested on: TK-10
# OVCAR-8 = tested on: OVCAR-8
# NCI-H460 = tested on: NCI-H460
# 786-0 = tested on: 786-0
# NCI-H23 = tested on: NCI-H23
# A549 = tested on: A549
# NCI-H522 = tested on: NCI-H522
# EKVX = tested on: EKVX
# SK-OV-3 = tested on: SK-OV-3
# HCT-15 = tested on: HCT-15
# KM12 = tested on: KM12
# SNB-19 = tested on: SNB-19
# UO-31 = tested on: UO-31
# HOP-62 = tested on: HOP-62
# SK-MEL-2 = tested on: SK-MEL-2
# OVCAR-4 = tested on: OVCAR-4
# SN12C = tested on: SN12C
# ACHN = tested on: ACHN
# SF-268 = tested on: SF-268
# SNB-75 = tested on: SNB-75
# SF-539 = tested on: SF-539
# Malme-3M = tested on: Malme-3M
# MOLT-4 = tested on: MOLT-4
# IGROV-1 = tested on: IGROV-1
# K562 = tested on: K562
# SW-620 = tested on: SW-620
# HOP-92 = tested on: HOP-92
# DMS-273 = tested on: DMS-273
# M14 = tested on: M14
# HCC 2998 = tested on: HCC 2998
# CCRF-CEM = tested on: CCRF-CEM
# M19-MEL = tested on: M19-MEL
# OVCAR-5 = tested on: OVCAR-5
# RXF 393 = tested on: RXF 393
# HT-29 = tested on: HT-29
# NCI-H226 = tested on: NCI-H226
# LXFL 529 = tested on: LXFL 529
# COLO 205 = tested on: COLO 205
# U-251 = tested on: U-251
# LOX IMVI = tested on: LOX IMVI
smiles,measurement,setting,value
CC(=O)NC(CCCCN)C(=O)NCc1ccccc1 (centres undefined),GI50,DLD-1,> 100 µM (inactive)
same,GI50,XF498,> 100 µM (inactive)
same,GI50,UACC-62,> 100 µM (inactive)
same,GI50,SK-MEL-28,> 100 µM (inactive)
same,GI50,KM-20L2,> 100 µM (inactive)
same,GI50,OVCAR-3,> 100 µM (inactive)
same,GI50,RPMI-8226,> 100 µM (inactive)
same,GI50,SK-MEL-5,> 100 µM (inactive)
same,GI50,DMS-114,> 100 µM (inactive)
same,GI50,UACC-257,> 100 µM (inactive)
same,GI50,SF-295,> 100 µM (inactive)
same,GI50,A498,> 100 µM (inactive)
same,GI50,HCT-116,> 100 µM (inactive)
same,GI50,CAKI-1,> 100 µM (inactive)
same,GI50,TK-10,> 100 µM (inactive)
same,GI50,OVCAR-8,> 100 µM (inactive)
same,GI50,NCI-H460,> 100 µM (inactive)
same,GI50,786-0,> 100 µM (inactive)
same,GI50,NCI-H23,> 100 µM (inactive)
same,GI50,A549,> 100 µM (inactive)
same,GI50,NCI-H522,> 100 µM (inactive)
same,GI50,EKVX,> 100 µM (inactive)
same,GI50,SK-OV-3,> 100 µM (inactive)
same,GI50,HCT-15,> 100 µM
same,GI50,KM12,> 100 µM (inactive)
same,GI50,SNB-19,> 100 µM (inactive)
same,GI50,UO-31,> 100 µM (inactive)
same,GI50,HOP-62,> 100 µM (inactive)
same,GI50,SK-MEL-2,> 100 µM (inactive)
same,GI50,OVCAR-4,> 100 µM (inactive)
same,GI50,SN12C,> 100 µM (inactive)
same,GI50,ACHN,> 100 µM (inactive)
same,GI50,SF-268,42.1 µM (inactive)
same,GI50,SNB-75,88.1 µM (inactive)
same,GI50,SF-539,> 100 µM (inactive)
same,GI50,Malme-3M,> 100 µM (inactive)
same,GI50,MOLT-4,> 100 µM (inactive)
same,GI50,IGROV-1,> 100 µM (inactive)
same,GI50,K562,> 100 µM (inactive)
same,GI50,SW-620,> 100 µM (inactive)
same,GI50,HOP-92,> 100 µM (inactive)
same,GI50,DMS-273,> 100 µM (inactive)
same,GI50,M14,> 100 µM (inactive)
same,GI50,HCC 2998,> 100 µM (inactive)
same,GI50,CCRF-CEM,> 100 µM (inactive)
same,GI50,M19-MEL,> 100 µM (inactive)
same,GI50,OVCAR-5,> 100 µM (inactive)
same,GI50,RXF 393,> 100 µM (inactive)
same,GI50,HT-29,> 100 µM (inactive)
same,GI50,NCI-H226,> 100 µM (inactive)
same,GI50,LXFL 529,> 100 µM (inactive)
same,GI50,COLO 205,> 100 µM (inactive)
same,GI50,U-251,> 100 µM (inactive)
same,GI50,LOX IMVI,> 100 µM (inactive)
